Assays:
[1] = test system: HUVECs; assay: HUVEC proliferation (Promega cell titer assay); type: cell-based, human; settings: 48 hours; for Mean OD at 530 nm: HUVECs
Description: Passage 4 HUVECs, lot number 9713, in either EGM-2 plus 50 ng/ml vascular endothelial growth factor (VEGF) (obtained from Sigma) or in EGM-2 complete medium (containing 2% FCS, hydrocortisone, human fibroblast growth factor B, VEGF, recombinant insulin-like growth factor-1, ascorbate, human […], gentamycin and heparin) (obtained from Cambrex) were put into the wells of a 96-well tissue culture plate at 5,000 cells/well. The following additives were added to the cells: water (vehicle control); 5 μg/ml of the compound of formula II (Cpd II); 15 μg/ml Cpd II; or 30 μg/ml of Cpd II. After 48 hours of culture at 37° C. and 5% CO2, cell proliferation was evaluated by the Promega cell titer assay as described in Example 1, except that the plates were incubated for only 2 hours after addition of the Promega cell titer reagent.

[2] = test system: NFκB; assay: Activated NFκB in TNFα- or VEGF-treated HIAECs (TransAM assay); type: cell-based; settings: Homo sapiens, VEGF 10 ng/ml, Cpd II 15 μg/ml, read-out: Percent Inhibition (NFκB)
Description: Passage 8 (human iliac artery endothelial cells (HIAECs) (obtained from ATCC; catalog no. CC-2545) were grown to confluence in 25 cm^2 flasks in EGM-2 medium. Eighteen hours prior to the experiment, the medium was replaced with EGM-2 medium containing 0.1% FCS plus heparin, GA1000 (gentamycin) and bovine pituitary extract (all from Cambrex) to place the cells in a resting state. To perform the experiment the medium was aspirated from the flasks, and the following additives were added to the flasks in fresh medium (total volume of 5 ml/flask): 15 μg/ml of the compound of formula II (Cpd II) or 10 μM LY 294002. The flasks were incubated 2 hours at 37° C., 5% CO2. After this incubation, VEGF or TNFα was added to give a final concentration 10 ng/ml, and the flasks were incubated for an additional 30 minutes. Then, the amount of NFκB was determined using a TransAM™ NFκB p65/NFκB p50 Transcription Factor Assay Kit and a Nuclear Extract Kit from Active Motif North America, Carlsbad, Calif., as described in Example 12.

[3] = test system: IL-8; assay: IL-8 release by PHA-stimulated PBL (ELISA); type: cell-based, human; settings: Example 4, GR-192 PBL; 15 μg/ml Cpd II, 10 μM Dex; PHA 2 μg/ml, 96 hours; FIG. 8
Description: Whole blood was drawn from GR-192, a normal human volunteer, and processed as described in Example 1 to give heat-inactivated serum and PBL. […] After this incubation, PHA was added to give a final concentration of 2 μg/ml, and the cells were incubated for an additional 96 hours at 37° C., 5% CO2. All cultures were performed in triplicate. Cells were then removed by centrifugation at 1000 rpm for 10 minutes, and the culture medium collected.
To perform the ELISA, matched pairs of antibodies against human IL-8 were purchased from Pierce Biotechnology and Biosource, respectively. ELISA strip well plates were coated with 2 μg/ml of antibody to IL-8 (in phosphate-buffered saline (PBS)) overnight at room temperature. The plates were then blocked using a 4% BSA solution in PBS for one hour, followed by the addition of 50 μl of experimental culture medium per well in duplicate. The plates were incubated at room temperature for one hour and then washed using 50 mM Tris pH 8.0 with 0.1% Tween 20. Then, solutions of 100 ng/ml biotinylated second antibody to IL-8 were made in blocking buffer, and 100 μl were added per well. The plates were incubated for 1 hour and washed again. […] OD was determined using microplate reader with a 450 nm filter.

[4] = test system: peripheral blood lymphocytes (PBL); assay: PHA-induced cell clumping of PBL; type: cell-based, human; settings: Example 1, PBL of donor GR283; compound 5, 15, 50 μg/ml; 5 μg/ml PHA; 72 hours
Description: Whole blood was drawn from GR283, a human volunteer with known allergies, into a glass vacutainer tube containing no anticoagulant. This blood was allowed to clot, and the serum was removed by centrifugation and then heat inactivated by placing it in a water bath at 56° C. for 30 minutes. Whole blood from GR283 was also drawn into a glass vacutainer tube containing heparin and used for peripheral blood lymphocytes (PBL) isolation as follows. Whole blood was layered over room temperature Histopaque 1077 solution and centrifuged at 2000 rpm for 15 minutes at room temperature. Cells at the plasma-Histopaque interface were then removed and washed with culture medium (IMDM medium with 10% heat-inactivated GR283 serum plus 1% penicillin/streptomycin) at 37° C.
The compound of formula II (see above) and methylphenidate (both obtained from Dr. Jeffrey D. Winkler, University of Pennsylvania, Philadelphia, Pa.) in culture medium were added to wells of a 96-well plate to give final concentrations of 5 μg/ml, 15 μg/ml and 50 μg/ml of the compound of formula II and of methylphenidate. […] Then, GR283's PBL in culture medium were added to the wells to give a final concentration of 150,000 cells per well, and the plates were incubated at 37° C., 5% CO2 for 24 hours. […]

[5] = test system: IL-8; assay: IL-8 release from LPS-stimulated THP-1 monocytes (ELISA); type: cell-based; settings: THP-1, LPS 200 ng/ml; Cpd II 15 μg/ml, Dex 10 μM
Description: (§1) THP-1 is a monocyte cell line obtained from American Type Culture Collection (ATCC) (catalog no. TIB-202). […] After 1 hour, lipopolysaccharide (LPS) (obtained from Sigma) was added to the cultures to give a final concentration of 200 ng/ml, and the cells were then incubated for an additional 4 hours or for an additional 24 hours. After the incubation, the cells were centrifuged, and the supernatants were collected. The concentrations of IL-8 and TNFα in the supernatants were determined by ELISA.
The concentrations of IL-8 in the supernatants were determined by ELISA performed as described in Example 4.

[6] = test system: TNFα; assay: TNFα release from LPS-stimulated THP-1 monocytes (ELISA); type: cell-based; settings: THP-1, LPS 200 ng/ml; Cpd II 15 μg/ml, Dex 10 μM
Description: as §1
The TNFα ELISA was performed as described in Example 2.

COC(=O)C(c1ccc(-c2ccccc2)cc1)C1CCCCN1 (stereo not drawn) [Cpd II]
number of cells detected in the wells ([1]; HUVECs, 5, 15, 30 μg/ml): reduced the number of cells detected in the wells in a dose-dependent manner | Mean OD at 530 nm ([1]; EGM-2 + VEGF, 5 μg/ml, vehicle 0.224 ± 0.011): 0.189 ± 0.014 | Mean OD at 530 nm ([1]; EGM-2 + VEGF, 15 μg/ml, vehicle 0.224 ± 0.011): 0.132 ± 0.022 | Mean OD at 530 nm ([1]; EGM-2 + VEGF, 30 μg/ml, vehicle 0.224 ± 0.011): 0.046 ± 0.012 | Mean OD at 530 nm ([1]; EGM-2 + growth factors, 5 μg/ml, vehicle 0.299 ± 0.011): 0.271 ± 0.022 | Mean OD at 530 nm ([1]; EGM-2 + growth factors, 15 μg/ml, vehicle 0.299 ± 0.011): 0.239 ± 0.019 | Mean OD at 530 nm ([1]; EGM-2 + growth factors, 30 μg/ml, vehicle 0.299 ± 0.011): 0.066 ± 0.003 | inhibition at 15 µg/mL [2]: 70% | IL-8 release induced by PHA [3]: significantly inhibited IL-8 release | amount of cell clumping induced by PHA [4]: reduced the amount of cell clumping induced by 5 μg/ml PHA in a dose-dependent manner | release of IL-8 from the LPS-stimulated monocytes [5]: significantly inhibited the release of IL-8 | release of TNFα from the LPS-stimulated monocytes [6]: significantly inhibited the release of TNFα

Source: patent publication US8076485B2, “Methylphenidate derivatives and uses of them” (priority 2005, dated 2011)
